Assay results as given in patent publication US20020099086A1, “Use of extracts from aristolochia in the treatment of AIDS” (PROTEOME SCIENCES PLC, priority 1998, published 2002).

Key:
[1] = tested on: Salmonella typhimurium strain TA 100; assay: Ames bio-assay, antimutagenic activity against 2-amino-anthracene (2-AA) with S9 Mix; assay type: cell-based; conditions: for Residual mutagenic activity (%) observed for 2-AA: 1 μg 2-AA per plate, S9 Mix
Experimental: (§1) The four major constituents of the benzene extract from Aristolochia taliscana roots—eupomatenoid-7 (7), eupomatenoid-1 (8), eupomatenoid-8 (17), Licarin-A (16)—were tested for their mutagenic and antimutagenic properties using the Ames bio-assay (Maron, D. M. and Ames, B. N., Mutation reasearch, 1983, 113, 173). The test compounds have the following structural formula: [drawing 11]
(§2) Salmonella typhimurium strain TA 100 was used as the test organism and 2-amino-anthracene (2-AA) and 2-nitrofluorene (2-NF) as standard mutagens, of which 1 μg were added to each test plate. In the experiments with 2-AA, “S9 Mix” (derived from phenobarbital treated rat liver cells (De Flora, S., Camoirana, A., D'Agostini, F. and Balansky, R., Mutation Research, 1992, 267, 183) was also added.

[2] = tested on: Salmonella typhimurium strain TA 100; assay: Ames bio-assay, antimutagenic activity against 2-nitrofluorene (2-NF); assay type: cell-based; conditions: for Residual mutagenic activity (%) observed for 2-NF: 1 μg 2-NF per plate
Experimental: as §1, §2

brine shrimp = assay: Brine shrimp bioassay (cytotoxicity); assay type: in vivo; conditions: for LC50: brine shrimp, 24 hours
Experimental: The cytotoxicity of compounds isolated from Aristolochia taliscana was assayed using the well known brine shrimp bioassay. The cytotoxicities of compounds of the invention, expressed as percentage “death rates” after 24 hours, at varying concentrations, are shown in Table 8 below.

Botryis cinerea = assay: Antifungal plate diffusion method; assay type: cell-based; conditions: 150 microgramme aliquot spotted onto plate
Experimental: (§3) The antifungal activities of compounds of the invention was determined using a plate diffusion method. Plates containing medium and a fungal species were made up and 150 microgramme aliquots of a test compound of the invention were spotted onto the plate. The diameter of inhibition of fungal growth around the test compound was then determined.

Rhizoctonia solani = assay: Antifungal plate diffusion method; assay type: cell-based; conditions: 150 microgramme aliquot spotted onto plate
Experimental: as §3

Saprolegnia asterophora = assay: Antifungal plate diffusion method; assay type: cell-based; conditions: 150 microgramme aliquot spotted onto plate
Experimental: as §3

opiate mu receptor = opiate mu receptor (Homo sapiens, UniProt P35372); assay: Interaction with neurotransmitter receptors; assay type: binding
Sequence of opiate mu receptor (P35372 whole entry): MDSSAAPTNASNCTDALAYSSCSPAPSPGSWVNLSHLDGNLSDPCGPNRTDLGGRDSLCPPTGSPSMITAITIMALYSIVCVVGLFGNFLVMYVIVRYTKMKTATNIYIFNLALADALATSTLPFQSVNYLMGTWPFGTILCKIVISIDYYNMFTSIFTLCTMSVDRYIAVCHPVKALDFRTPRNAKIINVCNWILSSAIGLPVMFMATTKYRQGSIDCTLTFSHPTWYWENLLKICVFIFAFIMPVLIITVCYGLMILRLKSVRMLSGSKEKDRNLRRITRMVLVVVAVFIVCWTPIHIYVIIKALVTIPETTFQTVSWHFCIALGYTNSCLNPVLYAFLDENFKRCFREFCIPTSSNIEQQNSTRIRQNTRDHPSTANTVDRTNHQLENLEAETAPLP

dopamine receptors = assay: Interaction with neurotransmitter receptors; assay type: binding
GABA receptors = assay: Interaction with neurotransmitter receptors; assay type: binding
serotonin receptors = assay: Interaction with neurotransmitter receptors; assay type: binding
[3] = tested on: remaining receptors of twenty seven common receptor types; assay: Interaction with neurotransmitter receptors; assay type: binding; conditions: twenty seven common receptor types tested
Parkinsonism = conditions: disclosed in U.S. Pat. No. 4782077; cited from earlier work

Row | Compound | “Death Rate” After 24 Hours (%) (brine shrimp; 10 ppm) | “Death Rate” After 24 Hours (%) (brine shrimp; 100 ppm) | “Death Rate” After 24 Hours (%) (brine shrimp; 500 ppm) | LC50 (brine shrimp) | diameter of inhibition of fungal growth, Botryis cinerea (Botryis cinerea) | diameter of inhibition of fungal growth, Rhizoctonia solani (Rhizoctonia solani) | diameter of inhibition of fungal growth, Saprolegnia asterophora (Saprolegnia asterophora) | further results
1 | C/C=C/c1cc(OC)c2oc(-c3ccc(O)c(OC)c3)c(CO)c2c1 |  |  |  |  |  |  |  | melting point: 175 to 179 °C
2 | COc1cc(C2(C)COc3c(OC)cc(C=O)cc32)ccc1O (stereo not shown) |  |  |  |  |  |  |  | melting point: 162 to 165 °C
3 | COc1cc(-c2oc3c(OC)cc(/C=C/CO)cc3c2C)ccc1O |  |  |  |  |  |  |  | melting point: 180 to 183 °C
4 | C=CC(O)c1cc(OC)c2oc(-c3ccc(O)c(OC)c3)c(C)c2c1 (racemic) |  |  |  |  |  |  |  | melting point: 164 to 167 °C
5 | CC=Cc1cc(OC)c2c(c1)C(C)C(c1ccc3c(c1)OCO3)O2 (single isomer, unassigned; (-)) [Eupomatenoid-8 (17)] | 9% | 27% | 42% | >500 ppm | − | − | − | antimutagenic effect against 2-aminoanthracene (in words) [1]: did not show any antimutagenic effect; Residual mutagenic activity (%) observed for 2-AA ([1]; 50 μg compound added): 90%; Residual mutagenic activity (%) observed for 2-AA ([1]; 100 μg compound added): 73%; antimutagenic effect against 2-nitrofluorene (in words) [2]: did not show any antimutagenic effect; Residual mutagenic activity (%) observed for 2-NF ([2]; 50 μg compound added): 100%; Residual mutagenic activity (%) observed for 2-NF ([2]; 100 μg compound added): 95%
6 | COc1ccc2cc3c4c(cc(OC)c(OC)c4c2c1)C(=O)N3 [Aristolactam B (3), Aristolactam B III] | 5% | 9% | 29% | >500 ppm | − | + (+ = 5 mm diameter inhibition) | − | 
7 | COc1cc2c(cc1C)C(=O)[C@H](O)C[C@@H]2C [Compound 34, (2R,4S)-2-Hydroxy-6-methoxy-4,7-dimethyl-1-tetralone] | 52% | 86% | 100% | <10 ppm | ++ (++ = 5-10 mm diameter inhibition) | ++ (++ = 5-10 mm diameter inhibition) | ++ (++ = 5-10 mm diameter inhibition) | 
8 | COc1cc(/C=C/CO)ccc1O [Coniferyl alcohol (29), Coniferyl alcohol] | 0% | 0% | 15% | >500 ppm | − | − | − | 
9 | C=C1/C=C/[C@@H](C(C)C)CC/C(C)=C/CC1 [E-Germacrene D (38), ent-Germacrene-D] | 0% | 39% | 100% | ca. 126 ppm | + (+ = 5 mm diameter inhibition) | + (+ = 5 mm diameter inhibition) | − | 
10 | CC=Cc1cc(OC)c2oc(-c3ccc4c(c3)OCO4)c(C)c2c1 [Eupomatenoid-1 (8), Eupomatenoid-1] | 12% | 16% | 20% | >500 ppm | − | − | − | antimutagenic effect against 2-aminoanthracene (in words) [1]: antimutagenically active; Residual mutagenic activity (%) observed for 2-AA ([1]; 50 μg compound added): 49%; Residual mutagenic activity (%) observed for 2-AA ([1]; 100 μg compound added): 44%; antimutagenic effect against 2-nitrofluorene (in words) [2]: not against 2-NF; Residual mutagenic activity (%) observed for 2-NF ([2]; 50 μg compound added): 99%; Residual mutagenic activity (%) observed for 2-NF ([2]; 100 μg compound added): 93%
11 | C/C=C/c1cc(OC)c2oc(-c3ccc(O)c(OC)c3)c(C)c2c1 [Eupomatenoid-7 (7), Eupomatenoid-7] | 27% | 38% | 38% | >500 ppm | − | − | − | antimutagenic effect against 2-aminoanthracene (in words) [1]: strong antimutagenic effects; Residual mutagenic activity (%) observed for 2-AA ([1]; 50 μg compound added): 4%; Residual mutagenic activity (%) observed for 2-AA ([1]; 100 μg compound added): 0%; antimutagenic effect against 2-nitrofluorene (in words) [2]: strong antimutagenic effects; Residual mutagenic activity (%) observed for 2-NF ([2]; 50 μg compound added): 16%; Residual mutagenic activity (%) observed for 2-NF ([2]; 100 μg compound added): 0%
12 | C/C=C/c1cc(OC)c2c(c1)[C@H](C)[C@@H](c1ccc(O)c(OC)c1)O2 [Licarin-A (16), Licarin-A] | 93% | 93% | 96% | <10 ppm | − | ++ (++ = 5-10 mm diameter inhibition) | − | antimutagenic effect against 2-aminoanthracene (in words) [1]: antimutagenically active; Residual mutagenic activity (%) observed for 2-AA ([1]; 50 μg compound added): 31%; Residual mutagenic activity (%) observed for 2-AA ([1]; 100 μg compound added): 6%; antimutagenic effect against 2-nitrofluorene (in words) [2]: not against 2-NF; Residual mutagenic activity (%) observed for 2-NF ([2]; 50 μg compound added): 94%; Residual mutagenic activity (%) observed for 2-NF ([2]; 100 μg compound added): 85%
13 | COc1cc([C@@H]2c3cc4c(cc3[C@H](O)[C@H]3COC(=O)[C@H]23)OCO4)cc(OC)c1OC [Podophyllotoxin, reference compound] | 74% | 93% | 100% | <10 ppm |  |  |  | 
14 | COc1cc(C=O)ccc1O [Vanillin (31), Vanillin] | 5% | 0% | 12% | >500 ppm | − | − | − | 
15 | (+)(2R, 3R)-Dihydrocarinatidin [Dihydrocarinatidine (21)] | 26% | 53% | 80% | ca. 120 ppm | + (+ = 5 mm diameter inhibition) | + (+ = 5 mm diameter inhibition) | + (+ = 5 mm diameter inhibition) | 
16 | Aristolactam C III [Aristolactam C (4)] | 0% | 0% | 3% | >500 ppm | + (+ = 5 mm diameter inhibition) | + (+ = 5 mm diameter inhibition) | ++ (++ = 5-10 mm diameter inhibition) | 
17 | Taliscanine [Taliscanine (5)] |  |  |  |  |  |  |  | inhibition, opiate mu receptor (opiate mu receptor): 50%; activity at the dopamine receptors (dopamine receptors): negligible activity; activity at the GABA receptors (GABA receptors): negligible activity; activity at the serotonin receptors (serotonin receptors): negligible activity; levels of inhibition with the remaining receptors [3]: very poor levels of inhibition; symptoms of Parkinsonism and related neurological disorders (Parkinsonism): alleviates the symptoms of Parkinsonism and related neurological disorders
